According to ChEMBL document CHEMBL1201862, “PubChem BioAssay data set” (2004):
Calls of active or inactive are those of the source.

Experiments:
[1] = target: T1, Probable nicotinate-nucleotide adenylyltransferase (Staphylococcus aureus (strain N315), UniProt P65502); type: functional, Staphylococcus aureus subsp. aureus N315; settings: read-out: IC50_Mean;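 for IC50 Mean: confirmatory dose-response retesting of NadD inhibitor hits first found in an ultra-high-throughput screen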
[2] = target: T1, Probable nicotinate-nucleotide adenylyltransferase; type: functional, Staphylococcus aureus subsp. aureus N315
[3] = target: T2, Cannabinoid receptor 1 (Homo sapiens, UniProt P21554); assay: SAR analysis of agonists of the Cannabinoid Receptor 1 using an Image-Based Assay - Set 4. [Related pubchem assays (depositor defined):AID2013, AID2026]; type: functional
T2 sequence (P21554 whole entry): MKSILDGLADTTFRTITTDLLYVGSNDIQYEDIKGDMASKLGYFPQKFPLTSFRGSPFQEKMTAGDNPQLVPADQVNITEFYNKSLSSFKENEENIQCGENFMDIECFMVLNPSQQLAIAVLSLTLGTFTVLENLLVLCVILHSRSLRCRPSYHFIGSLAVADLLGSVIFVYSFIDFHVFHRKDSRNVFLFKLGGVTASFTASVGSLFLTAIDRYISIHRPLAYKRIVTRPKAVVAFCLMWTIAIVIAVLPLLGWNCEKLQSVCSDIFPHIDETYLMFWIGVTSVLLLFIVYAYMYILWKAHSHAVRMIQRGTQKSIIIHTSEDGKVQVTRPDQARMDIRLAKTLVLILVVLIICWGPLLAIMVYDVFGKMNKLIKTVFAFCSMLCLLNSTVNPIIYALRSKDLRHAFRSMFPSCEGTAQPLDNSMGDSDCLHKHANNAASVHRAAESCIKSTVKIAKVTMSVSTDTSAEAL

[4] = test system: Streptococcus; assay: Group A Streptococcus viability loss, dose response, counter-screen for streptokinase expression inhibitor project, luminescence, BacTiterGlo (AID 1915); type: functional, organism-based;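 note: potency for reduction of bacterial viability or growth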
[5] = target: T3, Cannabinoid receptor 2 (Homo sapiens, UniProt P34972); assay: SAR analysis of antagonists of the Cannabinoid Receptor 2 using an Image-Based Assay - Set 3. [Related pubchem assays (depositor defined):AID2013, AID2026]; type: functional
T3 sequence (P34972 whole entry): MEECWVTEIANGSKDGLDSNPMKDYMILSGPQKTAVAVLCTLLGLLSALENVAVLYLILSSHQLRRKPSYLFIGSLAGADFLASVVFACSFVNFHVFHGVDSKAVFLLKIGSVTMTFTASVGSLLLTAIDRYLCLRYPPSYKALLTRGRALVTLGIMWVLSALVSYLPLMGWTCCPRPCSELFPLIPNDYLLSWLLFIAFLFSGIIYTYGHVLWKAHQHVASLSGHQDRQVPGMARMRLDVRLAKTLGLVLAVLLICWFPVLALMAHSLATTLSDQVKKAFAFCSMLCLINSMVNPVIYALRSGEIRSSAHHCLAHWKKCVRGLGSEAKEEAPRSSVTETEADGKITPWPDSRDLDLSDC

[6] = target: T2, Cannabinoid receptor 1; assay: SAR analysis of antagonists of the Cannabinoid Receptor 1 using an Image-Based Assay - Set 4. [Related pubchem assays (depositor defined):AID2013, AID2026]; type: functional
[7] = target: T4, Coagulation factor XII (Homo sapiens, UniProt P00748); type: functional;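 note: activated factor XIIa alpha cleaving a fluorogenic AMC peptide substrate; inhibitor potency from loss of enzyme activity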
T4 sequence (P00748 whole entry): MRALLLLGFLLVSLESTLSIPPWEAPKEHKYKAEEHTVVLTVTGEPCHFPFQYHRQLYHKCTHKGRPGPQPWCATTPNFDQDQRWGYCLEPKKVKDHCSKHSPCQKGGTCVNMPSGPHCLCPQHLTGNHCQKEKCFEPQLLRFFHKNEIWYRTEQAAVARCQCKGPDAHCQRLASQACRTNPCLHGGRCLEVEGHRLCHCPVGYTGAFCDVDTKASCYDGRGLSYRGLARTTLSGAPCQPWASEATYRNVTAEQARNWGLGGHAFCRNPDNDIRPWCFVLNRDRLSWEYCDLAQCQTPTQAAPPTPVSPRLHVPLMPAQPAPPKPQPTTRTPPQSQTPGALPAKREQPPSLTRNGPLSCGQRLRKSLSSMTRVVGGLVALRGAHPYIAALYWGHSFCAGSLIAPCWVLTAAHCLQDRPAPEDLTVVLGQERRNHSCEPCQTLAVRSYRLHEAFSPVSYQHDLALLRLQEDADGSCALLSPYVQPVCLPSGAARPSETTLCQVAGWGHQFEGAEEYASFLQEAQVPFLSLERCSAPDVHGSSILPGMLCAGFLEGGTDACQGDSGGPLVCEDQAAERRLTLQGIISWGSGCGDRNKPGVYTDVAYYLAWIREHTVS

[8] = target: T3, Cannabinoid receptor 2; assay: SAR analysis of agonists of the Cannabinoid Receptor 2 using an Image-Based Assay - Set 3. [Related pubchem assays (depositor defined):AID2013, AID2026]; type: functional
[9] = target: T5, Streptokinase A (Streptococcus pyogenes serotype M1, UniProt P10520); assay: S. pyogenes streptokinase expression inhibitors, potency, dose response, plasminogen activation absorbance, OD405 (AID 1914); type: functional, Streptococcus pyogenes M1 GAS;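 note: secreted streptokinase activity via plasminogen activation per viability signal from cell pellet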
T5 sequence (P10520 whole entry): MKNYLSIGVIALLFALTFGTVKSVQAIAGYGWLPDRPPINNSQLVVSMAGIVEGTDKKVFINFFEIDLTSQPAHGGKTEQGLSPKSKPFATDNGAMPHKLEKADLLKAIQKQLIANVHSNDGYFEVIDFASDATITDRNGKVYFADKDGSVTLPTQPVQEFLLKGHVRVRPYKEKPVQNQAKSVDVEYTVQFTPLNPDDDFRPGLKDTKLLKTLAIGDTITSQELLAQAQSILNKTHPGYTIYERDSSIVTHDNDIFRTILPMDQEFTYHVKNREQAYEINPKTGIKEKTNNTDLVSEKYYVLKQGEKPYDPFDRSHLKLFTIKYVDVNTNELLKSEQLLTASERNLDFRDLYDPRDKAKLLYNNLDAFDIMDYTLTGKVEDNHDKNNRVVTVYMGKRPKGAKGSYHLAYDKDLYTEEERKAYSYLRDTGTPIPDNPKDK

[10] = test system: Streptococcus sp. 'group A'; assay: growth inhibition of control SK(-) GAS strain, dose response, counter-screen for streptokinase expression inhibitor project, luminescence, kanamycin, BacTiterGlo, confirmation (AID 1900); type: functional, organism-based
[11] = target: T6, G-protein coupled receptor 35 (Homo sapiens, UniProt Q9HC97); assay: SAR analysis of Antagonists of the GPR35 Receptor using an Image-Based Assay - Set 6. [Related pubchem assays (depositor defined):AID2013, AID2026]; type: functional
T6 sequence (Q9HC97 whole entry): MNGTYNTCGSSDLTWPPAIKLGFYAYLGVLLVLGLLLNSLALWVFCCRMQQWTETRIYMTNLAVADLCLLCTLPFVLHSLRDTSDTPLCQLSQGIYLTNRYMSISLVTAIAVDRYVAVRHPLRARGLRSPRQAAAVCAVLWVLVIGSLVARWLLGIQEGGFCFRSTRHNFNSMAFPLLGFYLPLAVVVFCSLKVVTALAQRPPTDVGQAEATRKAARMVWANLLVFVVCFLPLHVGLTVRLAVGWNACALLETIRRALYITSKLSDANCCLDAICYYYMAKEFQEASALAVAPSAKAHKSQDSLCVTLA

[12] = target: T6, G-protein coupled receptor 35; assay: SAR analysis of Agonists of the GPR35 Receptor using an Image-Based Assay - Set 4. [Related pubchem assays (depositor defined):AID2013, AID2026]; type: functional
[13] = target: G-protein coupled receptor 55 (Homo sapiens, UniProt Q9Y2T6); assay: SAR Analysis of Selective Antagonists of GPR55 using an Image-Based Assay - Set 4. [Related pubchem assays (depositor defined):AID2013, AID2026]; type: functional;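 note: antagonism of response to 5 µM lysophosphatidylinositol agonist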
Sequence of G-protein coupled receptor 55 (Q9Y2T6 whole entry): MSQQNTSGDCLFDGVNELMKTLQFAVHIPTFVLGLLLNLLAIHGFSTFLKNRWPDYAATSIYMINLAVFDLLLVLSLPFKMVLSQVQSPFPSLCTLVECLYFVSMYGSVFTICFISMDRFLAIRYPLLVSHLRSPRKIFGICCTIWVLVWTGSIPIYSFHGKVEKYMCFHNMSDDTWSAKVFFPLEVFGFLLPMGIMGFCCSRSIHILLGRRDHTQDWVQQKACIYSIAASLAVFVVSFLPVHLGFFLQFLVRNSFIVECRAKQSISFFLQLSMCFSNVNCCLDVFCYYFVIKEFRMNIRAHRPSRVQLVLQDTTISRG

[14] = cells; type: functional, cell-based
[15] = cells; type: functional, cell-based; remark: listed apart in the source
[16] = target: T7, Short transient receptor potential channel 4 (Mus musculus, UniProt Q9QUQ5); assay: mouse TRPC4 channel inhibitors, dose response, cell-based, HEK293 TRPC4/mu-opioid, Fluo-4 calcium (AID 434942); type: functional;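 note: potency of inhibitors blocking the TRPC4 calcium response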
T7 sequence (Q9QUQ5 whole entry): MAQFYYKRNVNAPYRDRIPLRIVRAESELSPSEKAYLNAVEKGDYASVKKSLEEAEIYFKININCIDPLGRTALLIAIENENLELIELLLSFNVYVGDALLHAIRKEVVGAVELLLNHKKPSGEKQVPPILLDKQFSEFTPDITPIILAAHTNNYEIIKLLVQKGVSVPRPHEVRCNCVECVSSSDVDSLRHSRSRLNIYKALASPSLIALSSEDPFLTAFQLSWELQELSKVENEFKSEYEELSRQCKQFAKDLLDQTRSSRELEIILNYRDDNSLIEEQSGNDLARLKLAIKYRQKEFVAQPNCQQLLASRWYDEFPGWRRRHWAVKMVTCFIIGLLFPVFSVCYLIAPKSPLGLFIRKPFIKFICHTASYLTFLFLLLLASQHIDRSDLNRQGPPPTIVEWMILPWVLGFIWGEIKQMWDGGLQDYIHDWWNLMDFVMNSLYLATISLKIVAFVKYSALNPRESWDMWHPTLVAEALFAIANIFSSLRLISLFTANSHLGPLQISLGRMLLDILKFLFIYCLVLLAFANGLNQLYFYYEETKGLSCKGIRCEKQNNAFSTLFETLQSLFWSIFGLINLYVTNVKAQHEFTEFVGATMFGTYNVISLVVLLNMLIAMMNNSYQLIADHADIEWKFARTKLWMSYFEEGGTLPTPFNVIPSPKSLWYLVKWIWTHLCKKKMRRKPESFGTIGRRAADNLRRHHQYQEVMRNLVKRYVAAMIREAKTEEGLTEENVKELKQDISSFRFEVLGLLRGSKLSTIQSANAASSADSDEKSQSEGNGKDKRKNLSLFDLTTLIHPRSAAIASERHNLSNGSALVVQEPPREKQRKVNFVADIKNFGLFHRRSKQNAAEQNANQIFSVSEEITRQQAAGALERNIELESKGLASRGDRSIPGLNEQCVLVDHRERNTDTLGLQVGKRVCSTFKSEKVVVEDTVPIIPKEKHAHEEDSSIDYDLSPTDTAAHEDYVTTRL

[17] = target: T8, Acyl-homoserine lactone acylase PvdQ (Pseudomonas aeruginosa (strain LESB58), UniProt Q9I194); assay: P. aeruginosa PvdQ acylase inhibitors, dose response, biochemical, fluorescence, plate reader and imaging, cherry-picks (AID 493231)
T8 sequence (Q9I194 whole entry): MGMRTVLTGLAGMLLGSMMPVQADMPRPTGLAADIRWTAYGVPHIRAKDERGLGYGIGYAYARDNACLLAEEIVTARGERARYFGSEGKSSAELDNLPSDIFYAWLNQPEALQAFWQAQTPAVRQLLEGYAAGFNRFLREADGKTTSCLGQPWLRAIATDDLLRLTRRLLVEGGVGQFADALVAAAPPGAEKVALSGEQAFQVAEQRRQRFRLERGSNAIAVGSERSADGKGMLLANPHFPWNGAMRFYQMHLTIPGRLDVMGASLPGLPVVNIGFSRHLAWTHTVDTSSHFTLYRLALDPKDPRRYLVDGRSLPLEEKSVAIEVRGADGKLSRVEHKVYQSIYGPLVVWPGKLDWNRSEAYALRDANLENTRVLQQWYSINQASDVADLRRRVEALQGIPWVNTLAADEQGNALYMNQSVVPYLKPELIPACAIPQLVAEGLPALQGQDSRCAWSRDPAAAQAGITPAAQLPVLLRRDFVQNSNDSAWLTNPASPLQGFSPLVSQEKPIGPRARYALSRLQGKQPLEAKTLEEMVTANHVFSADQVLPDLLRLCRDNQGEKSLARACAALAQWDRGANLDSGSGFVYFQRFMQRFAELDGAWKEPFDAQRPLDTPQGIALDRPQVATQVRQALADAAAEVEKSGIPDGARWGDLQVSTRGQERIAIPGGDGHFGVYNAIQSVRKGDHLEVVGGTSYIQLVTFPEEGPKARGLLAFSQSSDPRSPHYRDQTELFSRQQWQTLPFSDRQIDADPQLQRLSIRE

[18] = cells; type: functional
[19] = HepG2 cell cytotoxicity, dose response, cytotoxicity control for non-replicating M. tuberculosis project (AID 489018); type: functional; settings: Mycobacterium tuberculosis
[20] = C. albicans growth with fluconazole, confirmation, fluorescence, retest (AID 2467); type: functional, cell-based
[21] = NIH-3T3 fibroblast cytotoxicity, dose response, cytotoxicity control, cell-based, fluorescence, Alamar Blue, secondary assay (AID 2327); type: functional;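 note: NIH-3T3 mouse fibroblasts cultured with fluconazole at 8 µg/mL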
[22] = THP-1 cell cytotoxicity, dose response, cytotoxicity control for non-replicating M. tuberculosis project (AID 489025); type: functional
[23] = Vero E6 cell cytotoxicity, dose response, cytotoxicity control for non-replicating M. tuberculosis project, secondary assay (AID 492998); type: functional, VeroE6; settings: Vero C1008

T1 sequence (P65502 whole entry): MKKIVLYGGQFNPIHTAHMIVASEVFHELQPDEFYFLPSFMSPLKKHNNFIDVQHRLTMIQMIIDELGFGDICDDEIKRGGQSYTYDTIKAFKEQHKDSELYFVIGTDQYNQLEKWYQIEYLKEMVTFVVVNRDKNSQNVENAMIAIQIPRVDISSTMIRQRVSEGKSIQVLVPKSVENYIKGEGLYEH

| SMILES | EC50 [3] | IC50 [5] | IC50 [6] | EC50 [8] | IC50 [11] | EC50 [12] | IC50 [13] | further results |
| --- | --- | --- | --- | --- | --- | --- | --- | --- |
| Cc1ccc(-c2cc(C(=O)Nc3ccc(S(=O)(=O)Nc4cc(C)on4)cc3)c3ccccc3n2)c(C)c1 | > 32 µM (inactive) | > 32 µM (inactive) | 9.14 µM (active) | > 32 µM (inactive) | > 32 µM (inactive) | > 32 µM (inactive) | > 32 µM (inactive) | IC50 [1]: 15.4 µM (active); IC50 [2]: 4.38 µM (active); EC50 [4]: 25.2 µM (active); IC50 [7]: > 50 µM (inactive); EC50 [9]: 9.4 µM (active); EC50 [10]: 12.1 µM (active) |
| Cc1nn(C(=O)c2cccnc2)c(C)c1Sc1ccccc1 |  |  |  |  |  |  |  | EC50 [14]: > 350 µM (not active); EC50 [15]: > 350 µM (not active); EC50 [16]: 3.35 µM (active) |
| COc1ccc(CC(C)Nc2cccc(F)c2)cc1 (stereo not given) |  |  |  |  |  |  |  | AC50 [17]: 14.5 µM (active) |
| O=C(NC1CCCCCCC1)c1cc(F)c(F)cc1Cl |  |  |  |  |  |  |  | AC50 [17]: 52.8 µM (active) |
| O=C(COC(=O)CCc1c[nH]c2ccccc12)Nc1ccc([N+](=O)[O-])cc1 |  |  |  |  |  |  |  | IC50 [18]: 9.62 µM (active); CC50 [19]: > 20 µM (active) |
| Cc1nc(N2CCN(C(=O)c3ccc4c(c3)OCCO4)CC2)c2c3c(sc2n1)CCCC3 | > 32 µM (inactive) | 24.2 µM (inactive) | 3.36 µM (active) | > 32 µM (inactive) | > 32 µM (inactive) | > 32 µM (inactive) | 21.4 µM (inactive) |  |
| COc1cccc(-c2nnc(NC(=O)c3ccc4ncsc4c3)o2)c1 |  |  |  |  |  |  |  | EC50 [20]: 1.9 µM (active); IC50 [18]: 11.7 µM (active); EC50 [21]: > 150 µM (inconclusive); CC50 [22]: 23.5 µM (active); CC50 [19]: > 20 µM (active); CC50 [23]: 13 µM (active) |
| CCN(CC)S(=O)(=O)c1ccc(NC(=O)c2cc(-c3ccccc3)nc3ccccc23)cc1 | > 32 µM (inactive) | > 10.8 µM (inactive) | 0.352 µM (active) | > 32 µM (inactive) | > 32 µM (inactive) | > 32 µM (inactive) | > 32 µM (inactive) |  |
